Experimental data from patent publication US11998596B2 (priority 2019, dated 2024).

Test system: PBMCs from ASF-convalescent animals
Type: cell-based, pig

NSTLVIRI
Responding animals (%): 4/20 (20%) | Responding animals (responders/tested): 4/20 (20%)
